Test results reported in patent publication US7642277B2, “Non-nucleoside reverse transcriptase inhibitors” (Boehringer Ingelheim International GmbH, priority 2002, dated 2010).
Where two headings read alike, the source gives them in different places. One block for each compound: values may come before it.

Key:
HIV-1 (wild type) = assay: P24 cellular assay (EC50), data identified with * in Table 9, wild type; assay type: cell-based
Description: P24 Cellular Assay (EC50) (Data Identified with * in Table 9).
The p24 assay is as described in WO 01/96338, the contents of which are herein incorporated by reference.
(§1) The results are listed in Table 9 as IC50(nM) and EC50 (nM).
(§2) Table legend: A=>100; B=100-50; C=<50; NT=not tested

[1] = tested on: HIV-1 resistant mutant K103N/Y181C in C8166 LTRluc cells; assay: C8166 HIV-1 luciferase assay (EC50), resistant mutant; assay type: cell-based; settings: Human immunodeficiency virus 1, C8166, read-out: EC50 K103N/Y181C
Description: (§3) C8166 HIV-1 Luciferase Assay (EC50)
(§4) Plasmid: pGL3 Basic LTR/TAR #12
(§5) C8166 cells are a human T-lymphotrophic virus type 1 immortalized but nonexpressing line of cord blood lymphocytes and are highly permissive to HIV-1 infection. The reporter cells were made by electroporating C8166 cells with pGL3 Basic LTR/TAR and then selecting positive clones with blasticidine. The clone C8166-LTRluc #A8-F5-G7 was selected by 3 consecutive rounds of limiting dilution under blasticidine selection.
(§6) Media: Complete media consisting of: RPMI 1640+10% FBS+10^−5 M
(§7) β-mercaptoethanol+10 μg/ml gentamycin. Cultures are maintained in complete media with 5 μg/ml blasticidine, however, selection is removed for the assay.
(§8) Luciferase Assay Protocol
(§9) Eleven serial dilutions of 2.5× are made at 8× desired final concentration in a 1 ml deep well titer plate (96 wells). The 12th well contains complete media with no inhibitor and serves as the positive control. All samples contain the same concentration of DMSO (≦0.1% DMSO). A 25 μl aliquot of inhibitor is added, to triplicate wells, of a 96 well tissue culture treated clear view black microtiter plate (Corning Costar catalogue # 3904). The last row is reserved for uninfected C8166 LTRluc cells to serve as the background blank control and the first row is media alone.
Count C8166 LTRluc cells and place in a minimal volume of complete RPMI 1640 in a tissue culture flask (ex. 30×10^6 cells in 10 ml media/25 cm^2 flask). […] Incubate cells for 1.5 hours at 37° C. on a rotating rack in a 5% CO2 incubator. Resuspend cells in complete RPMI to give a final concentration of 25,000-cells/175 μl. Add 175 μl of cell mix to wells of 96 well microtiter plate containing 25 μl 8× inhibitors. Add 25,000 uninfected C8166-LTRluc cells/well in 200 μl complete RPMI to last row for background control. Incubate cells at 37° C. in 5% CO2 incubator for 3 days.
(§10) Add 50 μl Steady Glo (luciferase substrate T1/2=5 hours Promega catalogue # E2520) to each well of the 96 well plate. Determine the relative light units (RLU) of luciferase using the BMG LUMlstar Galaxy luminometer. Plates are read from the bottom for 2 seconds per well with a gain of 240.
(§11) The level of inhibition (% inhibition) of each well containing inhibitor was calculated with the following equation: […]
The calculated % inhibition values were then used to determine EC50, slope factor (n) and maximum inhibition (Imax) by the non-linear regression routine NLIN procedure of SAS using the following equation:
as §2

[2] = target: T1, HIV-1 RT resistant mutant K103N/Y181C (Human immunodeficiency virus type 1 group M subtype B, UniProt P04585, K690N/Y768C); assay: Reverse transcriptase (RT) enzymatic assay (IC50), PicoGreen fluorescence, resistant mutant; assay type: biochemical
T1 construct: The reverse transcriptase (RT) enzyme assay has been adapted to a 96-well microtiter plate format
Protocol: Reverse Transcriptase (RT) Assays Enzymatic Assay (IC50)
The enzymatic assay employed is described as follows: The reverse transcriptase (RT) enzyme assay has been adapted to a 96-well microtiter plate format and uses PicoGreen™ as a fluorescent intercalator. More explicitly, the HIV-1 RT enzyme was thawed and appropriately diluted into Tris/HCl 50 mM pH 7.8 containing NaCl 60 mM, MgCl2∘6H2O 2 mM, DTT 6 mM, GSH 2 mM and 0.02% w/v Chaps to give ≈10 nM enzyme. To 10 μL of this enzyme solution was added 10 μL of inhibitor solution (40 μM to […] inhibitor in the same assay buffer as above containing 4% v/v DMSO). The plate was pre-incubated for 15 minutes at room temperature before proceeding to the next step. In this pre-incubation step, the highest and lowest inhibitor concentrations were 20 μM and 1.016 nM respectively and the concentration of DMSO was 2% v/v. Then the enzymatic reaction was initiated by addition of 20 μL of substrate solution. The final reaction mixture contained Tris/HCl 50 mM pH 7.8, NaCl 60 mM, MgCl2∘6H2O 2 mM, DTT 6 mM, GSH 2 mM, CHAPS 0.02% w/v, DMSO 1% v/v, poly rC 45 nM, dG15 4.5 nM, dGTP 3.6 μM, and ≈2.5 nM enzyme. In this incubation step, the highest and lowest inhibitor concentrations were 10 μM and 0.508 nM respectively. After addition of the substrate cocktail, the plate was covered with a plastic seal and incubated for 50 minutes at 37° C. in a dry incubator. The reaction was then quenched by addition of 5 μL of EDTA 0.5 M. The plate was shaken for 30 seconds at medium speed and incubated for 5 minutes at room temperature. Then 160 μL of PicoGreen™ 1:400 dilution from commercial stock (diluted in Tris 20 mM pH 7.5 with EDTA 1 mM) was added and the plate was shaken for 30 seconds and incubated for 10 minutes at room temperature. The plate was then analyzed using a POLARstar Galaxy fluorimeter (BMG Labtechnologies) with λex and λem of 485 nm and 520 nm respectively. […] Each row contained at its extremities a blank and a control well.
as §2

[3] = tested on: HIV-1 (wild type) in C8166 LTRluc cells; assay: C8166 HIV-1 luciferase assay (EC50), wild type; assay type: cell-based; settings: Human immunodeficiency virus 1, C8166 HIV-1 luciferase assay (no *)
Description: as §3, §4
Plasmid is the pGL3 Basic Vector (a promoterless luciferase expression vector from Promega catalogue #E1751) with the addition of HIV-1 H×B2 LTR sequence from nucleotide −138 to +80 (Sca1-HindIII) upstream of the luciferase gene and the gene for blasticidine resistance cloned in.
as §5, §6, §7, §8
as §9, with “Serial dilutions of HIV-1 inhibitors compounds are prepared in complete media from 10 mM DMSO stock solutions. Eleven” for “Eleven”
Count C8166 LTRluc cells and place in a minimal volume of complete RPMI 1640 in a tissue culture flask (ex. 30×10^6 cells in 10 ml media/25 cm^2 flask). Infect cells with HIV-1 at a moi of 0.005. Incubate cells for 1.5 hours at 37° C. on a rotating rack in a 5% CO2 incubator. Resuspend cells in complete RPMI to give a final concentration of 25,000-cells/175 μl. Add 175 μl of cell mix to wells of 96 well microtiter plate containing 25 μl 8× inhibitors. Add 25,000 uninfected C8166-LTRluc cells/well in 200 μl complete RPMI to last row for background control. Incubate cells at 37° C. in 5% CO2 incubator for 3 days.
as §10, §11
The calculated % inhibition values were then used to determine EC50, slope factor (n) and maximum inhibition (Imax) by the non-linear regression routine NLIN procedure of SAS using the following equation: […]
as §1, §2

[4] = target: T2, HIV-1 RT enzyme (wild type) (Human immunodeficiency virus type 1 group M subtype B, UniProt P04585); assay: Reverse transcriptase (RT) enzymatic assay (IC50), PicoGreen fluorescence, wild type; assay type: biochemical; settings: RT enzymatic assay, wild type; read-out: IC50 WT
T2 construct: The reverse transcriptase (RT) enzyme assay has been adapted to a 96-well microtiter plate format
How it was run: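 Enzyme at ≈10 nM in 50 mM Tris/HCl pH 7.8 with 60 mM NaCl, 2 mM MgCl2, 6 mM DTT, 2 mM GSH, 0.02% Chaps; 15 min preincubation with compound at room temperature, then substrate added and run 50 min at 37 °C. EDTA quench; product DNA read by PicoGreen fluorescence.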

EC50 (HIV-1 (wild type); Human immunodeficiency virus 1): 50 to 100 nM
SMILES: O=C(COc1nnnn1-c1cccc2ccccc12)Nc1ccccc1[N+](=O)[O-] [Entry 302]

SMILES: Cc1ccc(-n2nnnc2SCC(=O)Nc2ccc(-c3ccccc3)cc2C)c(Cl)c1 [Entry 511]
EC50 [1]: > 100 nM
IC50 [2]: > 100 nM
EC50 [3]: < 50 nM
IC50 [4]: < 50 nM

SMILES: CC(C)(C)c1ccc(-n2nnnc2SCC(=O)Nc2ccc(N3CCCC3)cc2Cl)c(Cl)c1 [Entry 612]
EC50 [1]: > 100 nM
IC50 [2]: > 100 nM
EC50 [3]: 50 to 100 nM
IC50 [4]: < 50 nM

SMILES: Cc1cc(C)c(-n2nnnc2SCC(=O)Nc2ccccc2[N+](=O)[O-])c(Br)c1 [Entry 147]
EC50 [1]: 50 to 100 nM
IC50 [2]: > 100 nM
EC50 [3]: < 50 nM
IC50 [4]: < 50 nM

SMILES: CC(C)(C)c1ccc(-n2nnnc2SCC(=O)Nc2ccc(S(N)(=O)=O)cc2Cl)c(Cl)c1 [Entry 604]
EC50 [1]: < 50 nM
IC50 [2]: < 50 nM
EC50 [3]: < 50 nM
IC50 [4]: < 50 nM

SMILES: Cc1ccc(-n2nnnc2SCC(=O)Nc2ccc(-c3ccccc3)cc2Cl)c(Cl)c1 [Entry 510]
EC50 [1]: > 100 nM
IC50 [2]: 50 to 100 nM
EC50 [3]: < 50 nM
IC50 [4]: < 50 nM

SMILES: C=CCc1ccc(-n2nnnc2SCC(=O)Nc2ccccc2Cl)c(Cl)c1 [Entry 708]
EC50 [1]: > 100 nM
IC50 [2]: > 100 nM
EC50 [3]: < 50 nM
IC50 [4]: < 50 nM

SMILES: CC(C)(C)c1ccc(-n2nnnc2SCC(=O)Nc2ccc(N3CCNCC3)cc2Cl)c(Cl)c1 [Entry 615]
EC50 [1]: > 100 nM
IC50 [2]: > 100 nM
EC50 [3]: < 50 nM
IC50 [4]: < 50 nM

SMILES: Cc1ccc(-c2ccccc2SCC(=O)Nc2ccccc2[N+](=O)[O-])c(Cl)c1 [Entry 417]
EC50 [1]: > 100 nM
IC50 [2]: > 100 nM
EC50 [3]: < 50 nM
IC50 [4]: < 50 nM

SMILES: CC(C)(C)OC(=O)N1CCN(c2ccc(NC(=O)CSc3nnnn3-c3ccc(C(C)(C)C)cc3Cl)c(Cl)c2)CC1 [Entry 614]
EC50 [1]: > 100 nM
IC50 [2]: > 100 nM
EC50 [3]: < 50 nM
IC50 [4]: < 50 nM

SMILES: CCc1ccc(-n2nnnc2SCC(=O)Nc2ccccc2Cl)c(Cl)c1 [Entry 707]
EC50 [1]: > 100 nM
IC50 [2]: > 100 nM
EC50 [3]: < 50 nM
IC50 [4]: < 50 nM

SMILES: CC(C)(C)c1ccc(-n2nnnc2SCC(=O)Nc2ccc(C(=O)O)cc2Cl)c(Cl)c1 [Entry 616]
EC50 [1]: < 50 nM
IC50 [2]: 50 to 100 nM
EC50 [3]: < 50 nM
IC50 [4]: < 50 nM

SMILES: CC(C)(C)c1ccc(-n2nnnc2SCC(=O)Nc2ccc(N)cc2Cl)c(Cl)c1 [Entry 617]
EC50 [1]: 50 to 100 nM
IC50 [2]: > 100 nM
EC50 [3]: < 50 nM
IC50 [4]: < 50 nM

SMILES: Cc1ccc(-n2nnnc2SCC(=O)Nc2ccc(C(=O)O)cc2Br)c(Cl)c1 [Entry 505]
EC50 [1]: > 100 nM
IC50 [2]: > 100 nM
EC50 [3]: < 50 nM
IC50 [4]: < 50 nM

SMILES: CC(C)(C)c1ccc(-n2nnnc2SCC(=O)Nc2ccc(CCC(=O)O)cc2Cl)c(Cl)c1 [Entry 601]
EC50 [1]: > 100 nM
IC50 [2]: > 100 nM
EC50 [3]: < 50 nM
IC50 [4]: < 50 nM

SMILES: O=C(CSc1nnnn1-c1cccc2ccccc12)Nc1ccc(O)cc1Cl [Entry 246]
EC50 [1]: > 100 nM
IC50 [2]: > 100 nM
EC50 [3]: < 50 nM
IC50 [4]: < 50 nM

SMILES: CC(C)(C)c1ccc(-n2nnnc2SCC(=O)Nc2ccc(S(=O)(=O)c3ccc(Cl)cc3)cc2Cl)c(Cl)c1 [Entry 605]
EC50 [1]: > 100 nM
IC50 [2]: > 100 nM
EC50 [3]: 50 to 100 nM
IC50 [4]: < 50 nM

SMILES: O=C(CSc1nnnn1-c1cccc2ccccc12)Nc1ccc(-c2ccccc2)cc1Cl [Entry 238]
EC50 [1]: > 100 nM
IC50 [2]: > 100 nM
EC50 [3]: 50 to 100 nM
IC50 [4]: < 50 nM

SMILES: CN1CCN(c2ccc(NC(=O)CSc3nnnn3-c3ccc(C(C)(C)C)cc3Cl)c(Cl)c2)CC1 [Entry 610]
EC50 [1]: > 100 nM
IC50 [2]: > 100 nM
EC50 [3]: < 50 nM
IC50 [4]: < 50 nM

SMILES: Cc1cc(C)c(-n2nnnc2SCC(=O)Nc2ccccc2[N+](=O)[O-])c(Cl)c1 [Entry 146]
EC50 [1]: 50 to 100 nM
IC50 [2]: 50 to 100 nM
EC50 [3]: < 50 nM
IC50 [4]: < 50 nM

SMILES: CC(C)(C)c1ccc(-n2nnnc2SCC(=O)Nc2ccc(S(=O)(=O)c3ccccc3)cc2Cl)c(Cl)c1 [Entry 606]
EC50 [1]: 50 to 100 nM
IC50 [2]: 50 to 100 nM
EC50 [3]: < 50 nM
IC50 [4]: < 50 nM

EC50 (HIV-1 (wild type)): < 50 nM
SMILES: O=C(CSc1nc(-c2cccc3ccccc23)c[nH]1)Nc1ccccc1[N+](=O)[O-] [Entry 401, 2-{{4-(1-Naphthalenyl)-1H-imidazol-2-yl}thio}-N-(2-nitrophenyl)acetamide]

SMILES: CC(C)=CCc1ccc(-n2nnnc2SCC(=O)Nc2ccccc2Cl)c(Cl)c1 [Entry 709]
EC50 [1]: > 100 nM
IC50 [2]: > 100 nM
EC50 [3]: > 100 nM
IC50 [4]: < 50 nM

SMILES: Cc1ccc(-n2c(CCO)nnc2SCC(=O)Nc2ccc(-c3ccccc3)cc2Cl)c(Cl)c1 [Entry 429]
EC50 [1]: > 100 nM
IC50 [2]: > 100 nM
EC50 [3]: < 50 nM
IC50 [4]: < 50 nM
